# From BindingDB's records for doi:10.1016/j.chembiol.2007.02.007 (Massachusetts General Hospital, 2007)
# Target: Phosphatidylinositol 4,5-bisphosphate 3-kinase catalytic subunit alpha isoform (Homo sapiens, UniProt P42336)
# Assay: Enzyme Assay
# Source text: Inhibition of PI3 kinase by WmC20 derivatives causing a formation of covalent bond between WmC20 derivatives and the target protein.
# Sequence of Phosphatidylinositol 4,5-bisphosphate 3-kinase catalytic subunit alpha isoform (P42336 whole entry, canonical isoform): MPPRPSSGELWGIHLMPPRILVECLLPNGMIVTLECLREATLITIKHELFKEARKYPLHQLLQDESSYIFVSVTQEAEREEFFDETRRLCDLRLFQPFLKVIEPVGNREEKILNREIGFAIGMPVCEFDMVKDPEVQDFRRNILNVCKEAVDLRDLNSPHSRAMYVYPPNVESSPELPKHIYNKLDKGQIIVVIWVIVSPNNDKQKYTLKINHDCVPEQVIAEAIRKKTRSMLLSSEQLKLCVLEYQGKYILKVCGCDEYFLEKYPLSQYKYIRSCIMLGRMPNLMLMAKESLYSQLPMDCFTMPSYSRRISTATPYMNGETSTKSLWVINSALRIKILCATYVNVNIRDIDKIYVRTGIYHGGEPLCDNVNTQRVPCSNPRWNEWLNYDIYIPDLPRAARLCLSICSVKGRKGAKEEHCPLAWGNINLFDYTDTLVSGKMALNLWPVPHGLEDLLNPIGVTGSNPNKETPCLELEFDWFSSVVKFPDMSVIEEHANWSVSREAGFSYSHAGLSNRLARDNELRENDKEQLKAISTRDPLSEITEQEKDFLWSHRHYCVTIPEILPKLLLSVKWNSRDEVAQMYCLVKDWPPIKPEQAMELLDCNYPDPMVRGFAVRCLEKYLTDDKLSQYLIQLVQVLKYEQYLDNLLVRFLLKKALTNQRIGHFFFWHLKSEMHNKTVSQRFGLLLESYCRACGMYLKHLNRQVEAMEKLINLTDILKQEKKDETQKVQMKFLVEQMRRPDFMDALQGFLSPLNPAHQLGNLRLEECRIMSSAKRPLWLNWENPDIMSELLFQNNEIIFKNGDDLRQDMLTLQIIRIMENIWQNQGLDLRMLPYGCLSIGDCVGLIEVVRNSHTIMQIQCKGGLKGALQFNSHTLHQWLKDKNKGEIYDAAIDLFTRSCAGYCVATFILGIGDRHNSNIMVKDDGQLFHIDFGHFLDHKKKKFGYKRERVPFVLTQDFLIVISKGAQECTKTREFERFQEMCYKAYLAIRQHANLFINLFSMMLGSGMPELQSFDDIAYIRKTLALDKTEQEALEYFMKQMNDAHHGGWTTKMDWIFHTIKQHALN
row,IC50 [nM],SMILES
1,108,"COC[C@H]1OC(=O)C(=CN(C)CCCCCC(=O)O)C2C(=O)C(=O)C3=C([C@H](OC(C)=O)C[C@]4(C)C(=O)CC[C@@H]34)[C@]21C (some centres undefined) [WmC20-NMeHA, 4]"
2,1140,"COC[C@H]1OC(=O)C(CSCC(NC(C)=O)C(=O)O)=C2C(=O)C(=O)C3=C([C@H](OC(C)=O)C[C@]4(C)C(=O)CCC34)[C@]21C (some centres undefined) [WmC20-cys, 3]"
3,> 1000,"COC[C@H]1OC(=O)C(=CNCCCCC(NC(C)=O)C(=O)O)C2C(=O)C(=O)C3=C([C@H](OC(C)=O)C[C@]4(C)C(=O)CC[C@@H]34)[C@]21C (some centres undefined) [WmC20-lys, 2]"

row,SMILES,IC50 [nM]
1,"COC[C@H]1OC(=O)C(=CN2CCCC2C(=O)O)C2C(=O)C(=O)C3=C([C@H](OC(C)=O)C[C@]4(C)C(=O)CC[C@@H]34)[C@]21C (some centres undefined) [WmC20-pro, 1]",68
